In brackets after ≈: the same amount, converted by molar mass. Where two headings read alike, the source gives them in different places.
What was measured:
B. subtilis ATCC6633 = assay: Antibacterial activity MIC, double-microdilution; type: cell-based, Bacillus subtilis
E. coli R477/100 = assay: Antibacterial activity MIC, double-microdilution; type: cell-based, Escherichia coli
[1] = target: Prokaryotic system (prokaryotic ribosome); assay: Prokaryotic translation inhibition, coupled transcription/translation, luciferase detection; type: biochemical
Description: Prokaryotic and eukaryotic translation inhibition was quantified in coupled transcription/translation assays by using active luciferase detection, performed as described hereinabove. […] All the experiments were performed in duplicates and analogous results were obtained in three different experiments. In all biological tests, all tested aminoglycosides were in their sulfate salt forms. The concentrations reported refer to that of the free amine form of each aminoglycoside.
(§1) In all biological experiments conducted, all tested aminoglycosides were in their sulfate salt forms. The concentrations reported in Table 3 refer to that of the free amine form of each aminoglycoside. Prokaryotic and eukaryotic translation inhibition was quantified in coupled transcription/translation assays as previously described. The half-maximal concentration (IC50) values were obtained from fitting concentration response curves to the data of at least three independent experiments, using GraFit 5 software. All the experiments were performed in duplicates and analogous results were obtained in three different experiments.

[2] = target: Eukaryotic system (eukaryotic cytoplasmic ribosome); assay: Eukaryotic translation inhibition, coupled transcription/translation, luciferase detection; type: biochemical; settings: for Prokaryotic versus Eukaryotic selectivity IC50^Euk/IC50^Pro: ratio of eukaryotic to prokaryotic translation inhibition IC50
Description: Prokaryotic and eukaryotic translation inhibition was quantified in coupled transcription/translation assays by using active luciferase detection, performed as described hereinabove. […] In all biological tests, all tested aminoglycosides were in their sulfate salt forms. The concentrations reported refer to that of the free amine form of each aminoglycoside.
as §1, with “software.” for “software. All the experiments were performed in duplicates and analogous results were obtained in three different experiments.”

[3] = Cell toxicity LC50 in HFF cells; type: cell-based; settings: human, read-out: Cell toxicity LC50 HFF
Description: (§2) In order to ensure suitable cell viability for each of the tested compounds at the concentrations tested, cell toxicity was evaluated for each compound by measuring the half-maximal-lethal concentration value (LC50 values) in HEK-293 and HFF (human foreskin fibroblasts) cells.
(§3) The percentages of cell viability were calculated as the ratio between the numbers of living cells in cultures grown in the presence of the tested compounds, versus cultures grown under the identical protocol but without the tested compound. The results represent averages of at least three independent experiments.
(§4) The half-maximal lethal concentration (LC50) values were obtained from fitting concentration-response curves to the data of at least three independent experiments, using GraFit 5 software.

[4] = Cell toxicity LC50 in HEK-293 cells; type: cell-based; settings: human, read-out: Cell toxicity LC50 HEK-293
Description: as §2, §3, §4

[5] = system: Prokaryotic system (prokaryotic ribosome); settings: shown previously; cited from earlier work
[6] = system: HFF (human foreskin fibroblasts) cells; assay: Cell toxicity LC50 in HFF cells; type: cell-based; settings: Table 2
Description: as §2, §3, §4

HEK-293 cells = assay: Cell toxicity LC50 in HEK-293 cells; type: cell-based; settings: Table 2
Description: as §2, §3, §4

[7] = system: nonsense mutation constructs R3X, R245X, G542X, W1282X, Q70X, R3381X (PCDH15, CFTR, IDUA, Dystrophin); assay: In vitro stop codon readthrough assay, p2Luc dual luciferase, TNT reticulocyte lysate; type: biochemical; settings: cell-free, mutations tested; comparison in words from FIGS. 2, 3, 5-7
Description: DNA fragments derived from PCDH15, CFTR, Dystrophin and IDUA cDNAs, including the tested nonsense mutation or the corresponding wild type (wt) codon, and four to six upstream and downstream flanking codons were created by annealing following pairs of complementary oligonucleotides:
The fragments were inserted in frame into the polylinker of the p2Luc plasmid between either BamHI and SacI (p.R3X and p.R245X), or SalI and SacI (all the rest) restriction sites.
For the in vitro readthrough assays, the obtained plasm ids, with addition of the tested aminoglycosides were transcribed and translated using the TNT Reticulocyte Lysate Quick Coupled Transcription/Translation System. Luciferase activity was determined after 90 minutes of incubation at 30° C., using the Dual Luciferase Reporter Assay System (Promega™).
Initially, the influence of the chiral C5″-methyl group on readthrough potential was evaluated on the pseudo-trisaccharides NB118 and NB119 by using a dual luciferase reporter assay system as described hereinabove. Briefly, DNA fragments were cloned between BamHI and SacI restriction sites of the p2luc vector and the obtained constructs were transcribed and translated using TNT quick coupled transcription/translation system. The amount of the translated products was evaluated using the dual luciferase reporter assay system and used to calculate the suppression level.

[8] = system: nonsense mutation constructs R3X, R245X, Q70X, W1282X, G542X in HEK-293 cells; assay: Ex vivo stop codon readthrough assay, p2luc constructs transfected to HEK-293 cells; type: cell-based, human; settings: ex vivo in HEK-293, all the mutations tested, FIGS. 4, 8-10
Description: For the ex vivo readthrough assays, the constructs harboring the R3X, R245X, Q70X and W1282X mutations were transfected to HEK-293 cells with Lipofectamine 2000 (Invitrogen) and addition of the tested compounds was performed 6 hours post transfection. The cells were harvested following 16 hours of incubation with the tested aminoglycosides. Stop codon readthrough was calculated as previously described (see, Grentzmann, G. et al., RNA, 1998, 4, p. 479).
The constructs were transfected into a human embryonic kidney cell line (HEK-293) and incubated with varying concentrations of NB122, NB123, NB54 and the control drug gentamicin, and the results are presented in FIGS. 4A-D.
As described hereinabove, the constructs of p2luc plasmid harboring the R3X, R245X, Q70X and W1282X mutations were transfected to HEK-293 cells using lipofectamine2000 and the tested compounds were added 6 hours post transfection. Cells were harvested after 16 hours incubation and luciferase activity was determined using the dual luciferase reporter assay system (Promega™). Stop codon readthrough was calculated as described previously, and the results are averages of at least three independent experiments.

human fibroblast cells = settings: background; cited from earlier work
[9] = Bacillus subtilis, ATCC6633, Table 1, free amine concentration, sulfate salts tested, read-out: Antibacterial activity MIC B. subtilis ATCC6633
[10] = Escherichia coli, R477/100, Table 1, read-out: Antibacterial activity MIC E. coli R477/100
[11] = Table 1, read-out: Translation inhibition Prokaryotic system IC50
[12] = Table 3, read-out: Translation Inhibition IC50^Pro
[13] = Table 1, read-out: Translation inhibition Eukaryotic System IC50
[14] = Table 3, read-out: Translation Inhibition IC50^Euk
[15] = HFF (human foreskin fibroblast) cells, Table 1
[16] = Table 2, read-out: Antibacterial activity MIC B. subtilis ATCC6633
[17] = Table 2, read-out: Antibacterial activity MIC E. coli R477/100
[18] = Table 2, read-out: Translation Inhibition Prokaryotic system IC50
[19] = Table 2, read-out: Translation Inhibition Eukaryotic System IC50
[20] = Bacillus subtilis, ATCC6633, Table 2, read-out: Antibacterial activity MIC B. subtilis ATCC6633
[21] = HFF (human foreskin fibroblast) cells, Table 2

Structure (SMILES) | IC50 [1, 12] [nM] | IC50 [2, 14] [nM] | Prokaryotic versus Eukaryotic selectivity IC50^Euk/IC50^Pro [2] | weaker inhibitors of prokaryotic translation than gentamicin and paromomycin [5] | MIC (B. subtilis ATCC6633; [16]) [µM] | MIC (E. coli R477/100; [17]) [µM] | IC50 [1, 18] [nM] | IC50 [2, 19] [nM] | CC50 [6] [mM] | CC50 (HEK-293 cells) [mM] | in vitro readthrough activity (stop codon suppression level) [7] | observed efficacy of aminoglycoside-induced readthrough, order [8] | also measured
NC[C@H]1O[C@@H](O[C@@H]2C(O)[C@H](N)CC(N)[C@H]2O[C@H]2OC(CO)[C@@H](O)[C@H](O)C2N)C(O)[C@H]1O (some centres unmarked) [NB30, reference compound] | 460 ± 50 | 31000 ± 4000 | 68 | about 10 fold |  |  |  |  |  |  |  |  | MIC (B. subtilis ATCC6633; [9]): 100 µM; MIC (E. coli R477/100; [10]): 790 µM (≈ 359 µg/mL); IC50 [1, 11]: 460 ± 50 nM; IC50 [2, 13]: 31000 nM; CC50 [3, 15]: 21.8 ± 0.9 mM; CC50 ([4]; HEK-293 cells, Table 1): 21.4 mM
C[C@@H](N)[C@H]1O[C@@H](O[C@@H]2[C@@H](O)[C@H](NC(=O)[C@@H](O)CCN)C[C@H](N)[C@H]2O[C@H]2O[C@H]([C@@H](C)O)[C@@H](O)[C@H](O)[C@H]2N)[C@H](O)[C@@H]1O [NB128, 6′-(R)-Methyl-5-O-(5-amino-5,6-dideoxy-β-D-allofuranosyl)-1-N—[(S)-4-amino-2-hydroxy-butanoyl] paromamine] | 1750 ± 145 | 890 ± 70 | 0.5 |  | 96 (≈ 56 µg/mL) | 384 (≈ 224 µg/mL) | 1750 ± 145 | 890 ± 70 | 2.78 ± 0.11 | 5.35 ± 0.31 | significantly stronger readthrough inducers than the corresponding counterparts | NB127 NB128>NB84>gentamicin | 
NCC[C@H](O)C(=O)N[C@@H]1CC(N)[C@@H](O[C@H]2OC(CO)[C@@H](O)[C@H](O)C2N)[C@H](O[C@@H]2O[C@H](CN)[C@H](O)C2O)C1O (some centres unmarked) [NB54, reference compound] | 160 ± 20 | 24000 ± 1000 | 151 | about 10 fold |  |  |  |  |  |  |  | NB122≥NB123>NB54>gentamicin | MIC (B. subtilis ATCC6633; [9]): 70 µM; MIC (E. coli R477/100; [10]): 588 µM (≈ 327 µg/mL); IC50 [1, 11]: 160 ± 20 nM; IC50 [2, 13]: 24000 nM; CC50 [3, 15]: 7.8 ± 0.4 mM; CC50 ([4]; HEK-293 cells, Table 1): 6.1 mM
C[C@@H](O)C1O[C@H](O[C@@H]2C(N)C[C@@H](N)C(O)[C@H]2O[C@@H]2O[C@H]([C@@H](C)N)[C@H](O)C2O)C(N)[C@@H](O)[C@@H]1O (stereo partly drawn) [NB125, 6′-(R)-Methyl-5-O-(5-amino-5,6-dideoxy-β-D-allofuranosyl)-paromamine] | 1860 ± 173 | 7960 ± 270 | 4.3 |  | 96 (≈ 46.3 µg/mL) | 1536 (≈ 741 µg/mL) | 1860 ± 173 | 7960 ± 270 | 7.59 ± 0.18 | 16.5 ± 3.1 | smaller comparatively | NB124>NB125>NB74>gentamicin | 
C[C@@H](O)C1O[C@H](O[C@@H]2C(N)C[C@@H](N)[C@@H](O)C2O[C@@H]2O[C@H](CN)[C@H](O)C2O)[C@@H](N)C(O)[C@@H]1O (some centres unmarked) [NB74, reference compound] | 1130 ± 120 |  |  | about 10 fold |  |  | 1130 ± 120 |  |  |  |  | NB124>NB125>NB74>gentamicin | MIC (B. subtilis ATCC6633; [20]): 42 µM (≈ 19.7 µg/mL); CC50 [3, 21]: 21.3 ± 1.72 mM; CC50 ([4]; HEK-293 cells, Table 2): 22.2 ± 1.06 mM
C[C@@H](O)C1O[C@H](O[C@@H]2C(N)C[C@@H](NC(=O)[C@@H](O)CCN)[C@@H](O)C2O[C@@H]2O[C@H](CN)[C@H](O)C2O)[C@@H](N)C(O)[C@@H]1O (some centres unmarked) [NB84, reference compound] | 980 ± 70 | 2800 ± 300 | 2.9 | about 10 fold |  |  | 980 ± 70 | 2800 ± 300 |  |  |  | NB127 NB128>NB84>gentamicin | MIC (B. subtilis ATCC6633; [20]): 70 µM (≈ 39.9 µg/mL); MIC (E. coli R477/100; Escherichia coli, R477/100, Table 2, read-out: Antibacterial activity MIC E. coli R477/100): 556 µM (≈ 317 µg/mL); CC50 [3, 21]: 16.3 ± 0.47 mM; CC50 ([4]; HEK-293 cells, Table 2): 5.77 ± 0.68 mM
CN[C@H]1[C@@H](O)C(OC2[C@H](N)CC(N)[C@@H](O[C@H]3OC(C(C)O)[C@@H](O)[C@H](O)C3N)[C@@H]2O)OCC1(C)O (some centres unmarked) [G418, reference compound] | 9 ± 2 | 2000 |  |  |  |  | 9 ± 2 | 2000 ± 300 |  |  | the strongest readthrough inducer |  | MIC (B. subtilis ATCC6633; Bacillus subtilis, ATCC6633, read-out: Antibacterial activity MIC B. subtilis ATCC6633): < 1.25 µM; MIC (E. coli R477/100; Escherichia coli, R477/100, read-out: Antibacterial activity MIC E. coli R477/100): 9 µM (≈ 4.47 µg/mL); more selective to prokaryotic versus eukaryotic ribosome [2]: 225 fold; CC50 ([3]; Table 2): 1.59 ± 0.14 mM; CC50 ([4]; Table 2): 1.31 ± 0.06 mM; LD50 against human fibroblast cells (human fibroblast cells): 0.04 mg/mL
CC(N)C1OC(OC2C(O)C(NC(=O)C(O)CCN)CC(N)C2OC2OC(C(C)O)C(O)C(O)C2N)C(O)C1O [NB127, 6′-(R)-Methyl-5-O-(5-amino-5,6-dideoxy-α-L-talofuranosyl)-1-N—[(S)-4-amino-2-hydroxy-butanoyl] paromamine] | 1750 ± 274 | 730 ± 70 | 0.4 |  | 192 (≈ 112 µg/mL) | 384 (≈ 224 µg/mL) | 1750 ± 274 | 730 ± 70 | 6.48 ± 0.26 | 5.09 ± 0.27 | significantly stronger readthrough inducers than the corresponding counterparts | NB127 NB128>NB84>gentamicin | 
